From patent US20090098222A1, “Accelerating Agent of Calcium Absorption” (priority 2006, published 2009) come the findings set out here.

Test [1] concerns rats fed a calcium-deficient diet. Nature of the test: Effects on bone absorption of calcium (30-day oral administration). It is filed as in vivo, rat. The settings on record: 30 days, 1 mg (Ca)/day, GA coadministered with Ca, compared with the Ca-treated group, FIG. 6. The text has this:
(§1) […]. Male Wistar rats weighing 200-250 g, and about 120 g especially in the experiment of studying calcium born absorption (Test Example 3), were used as an experimental animal.
Next, it was studied whether the accelerating effect of GA on calcium absorption reaches bone absorption, and prevents the decease of calcium content in the bone, using rats fed a calcium-deficient diet.
Calcium (Ca-treated group), or calcium and GA ([Ca+GA]-treated group) were orally administered to rats for 30 days with an amount of 1 mg (ca)/day, and changes of hardness and mineral (Ca, Mg, P, Zn) content of the femur, or ALP in blood were observed. Rats were fed a calcium-deficient diet in order to eliminate an effect of calcium contained in the normal diet.

For test [2] the test system is unchanged. Nature of the test: Effects on urinary excretion of calcium (metabolic cage). Format: in vivo, rat. As to conditions: total for three days, 40 mL of water containing the substance, FIG. 2. The protocol:
as §1
Usually, calcium concentrations in blood are constantly maintained by biogenic homeostasis and it is difficult to utilize it as an index of calcium absorption. Accordingly, the urinary excretion of calcium was assayed in place of it.
Rats were kept in a metabolic cage and 40 mL of water containing calcium (Ca), Gum Arabic (GA), or Ca and GA (Ca+GA) was given for three days. […]. After recovering urine, urinary concentration of calcium and urine volume were measured.

Consider `C[C@H](O)C(=O)[O-].C[C@H](O)C(=O)[O-].[Ca+2]` [Ca, calcium L-lactate], for which the ALP in blood entry in test [1] is on record as “elevation of ALP in blood was observed”. The “urinary excretion of calcium” value in test [2] was “not increased”.
